Experimental data reported in article PMC10959927, “Platinum iodido drugs show potential anti-tumor activity, affecting cancer cell metabolism and inducing ROS and senescence in gastrointestinal cancer cells” (Communications Biology, 2024).
“And” between values parts separate entries of the source, which are not always exact repeats. Equal values may be shown once. Read-outs that look alike come from different tables or passages of the source.

Columns and labels:
AGS cells [1] = test: Cell viability, crystal violet staining; conditions: for Cell Viability without NAC: AGS cells, Fig. S6A; for IC50: read-out: IC50 concentration (± SD) at 48 h, 48 h
Experimental: (§1) Cell viability was assessed using a crystal violet-based staining method. […] The cells (2 × 10^5) were seeded in 24-multiwell dishes in 0.5 mL of complete medium and incubated overnight. […] After 48 h, cells were fixed with 1% glutaraldehyde (20–30 min), washed with distilled water, and stained with 0.1% crystal violet. […] IC50 were calculated by using GraphPad Prism (version 8.0). Nonlinear regression was used to fit the data to the log (inhibitor) versus response (variable slope).

MKN45 cells = test: Cell viability, crystal violet staining; conditions: for Cell Viability without NAC: MKN45 cells, Fig. S6A; for IC50: read-out: IC50 concentration (± SD) at 48 h, 48 h
Experimental: as §1

PANC1 cells [2] = test: Cell viability, crystal violet staining; conditions: for Cell Viability without NAC: PANC1 cells, Fig. S6A; for IC50: read-out: IC50 concentration (± SD) at 48 h, 48 h
Experimental: as §1

AGS cells [3] = test: Immunofluorescence of γ-H2AX and 53BP1 foci; assay type: cell-based, human; conditions: for foci/cell, share of cells in class (Suma 100) / foci/cell, number of cells in class: Fig. 3B; for foci/cell, number of cells in class: cell count
Experimental: (§2) Cells (7 × 10^4) were seeded on 20 mm coverslips. […] Coverslips were incubated for 1 h with the primary antibody (Cell Signaling: H2AX Ser139 (#2595) and 53BP1 (#4937)) at room temperature, followed by a 1 h incubation with the appropriate secondary antibody. DNA was stained with DAPI. Fluorescence microscopy was performed using a NIKON Eclipse 90i. The image analysis was performed using the software program Nikon NIS-Elements and Image J.

PANC1 cells [4] = test: Immunofluorescence of γ-H2AX and 53BP1 foci; assay type: cell-based, human; conditions: PANC1, Fig. S4B
Experimental: as §2

SMILES: CC(C)[NH][Pt@SP3]([I])([I])[NH]C(C)C [I5, trans-[PtI2(isopropylamine)2]]
- IC25 concentration (AGS cells [1]; AGS): 15 µM
- Cell Viability without NAC (AGS cells [1]; dose 10 µM): 104.459
- Cell Viability without NAC (AGS cells [1]; dose 50 µM): 35.6312
- Cell Viability without NAC (AGS cells [1]; dose 75 µM): 33.3189
- IC50 (AGS cells [1]; AGS, NAC (+) 0.5 mM): > 100 µM
- IC50 (AGS cells [1]; AGS, NAC (-)): 40 µM and 38.2 µM
- Cell Viability without NAC (MKN45 cells; dose 10 µM): 97.9702 and 91.0232 and 100.944
- Cell Viability without NAC (MKN45 cells; dose 25 µM): 85.8879 and 70.3076 and 69.3928
- Cell Viability without NAC (MKN45 cells; dose 50 µM): 44.0762 and 29.818 and 39.7772
- Cell Viability without NAC (MKN45 cells; dose 75 µM): 32.4358 and 27.3279 and 29.4931
- IC50 (MKN45 cells; MKN45, NAC (+) 0.5 mM): > 100 µM
- IC50 (MKN45 cells; MKN45, NAC (-)): 30 µM and 28.7 µM
- Cell Viability without NAC (PANC1 cells [2]; dose 10 µM): 85.9915 and 83.1095 and 92.9481
- Cell Viability without NAC (PANC1 cells [2]; dose 25 µM): 34.4587 and 38.5831 and 38.2547
- Cell Viability without NAC (PANC1 cells [2]; dose 50 µM): 18.5972 and 30.025 and 31.7453
- Cell Viability without NAC (PANC1 cells [2]; dose 75 µM): 17.1129 and 21.5975 and 27.2406
- IC50 (PANC1 cells [2]; PANC1, NAC (+) 0.5 mM): > 100 µM
- IC50 (PANC1 cells [2]; PANC1, NAC (-)): 18 µM and 20 µM and 18.2 µM
- foci/cell, share of cells in class (Suma 100) (AGS cells [3]; class 16-30 foci/cell): 32.2835
- foci/cell, number of cells in class (AGS cells [3]; class 16-30 foci/cell): 41
- foci/cell, share of cells in class (Suma 100) (AGS cells [3]; class 31-45 foci/cell): 14.1732
- foci/cell, number of cells in class (AGS cells [3]; class 31-45 foci/cell): 18
- foci/cell, share of cells in class (Suma 100) (AGS cells [3]; class 46-60 foci/cell): 7.874
- foci/cell, number of cells in class (AGS cells [3]; class 46-60 foci/cell): 10
- foci/cell, share of cells in class (Suma 100) (AGS cells [3]; class <15 foci/cell): 37.0079
- foci/cell, number of cells in class (AGS cells [3]; class <15 foci/cell): 47
- foci/cell, share of cells in class (Suma 100) (AGS cells [3]; class >61 foci/cell): 8.661
- foci/cell, number of cells in class (AGS cells [3]; class >61 foci/cell): 11
- foci/cell: number of cells with 16-30 foci (AGS cells [3]; Fig. S4B, cell counts): 24
- foci/cell: number of cells with 31-45 foci (AGS cells [3]; Fig. S4B, cell counts): 5
- foci/cell: number of cells with 46-60 foci (AGS cells [3]; Fig. S4B, cell counts): 2
- foci/cell: number of cells with <15 foci (AGS cells [3]; Fig. S4B, cell counts): 37
- foci/cell: number of cells with >61 foci (AGS cells [3]; Fig. S4B, cell counts): 0
- foci/cell: share of cells with 16-30 foci (Suma 100) (AGS cells [3]; Fig. S4B, share of N): 35.2941
- foci/cell: share of cells with 31-45 foci (Suma 100) (AGS cells [3]; Fig. S4B, share of N): 7.353
- foci/cell: share of cells with 46-60 foci (Suma 100) (AGS cells [3]; Fig. S4B, share of N): 2.941
- foci/cell: share of cells with <15 foci (Suma 100) (AGS cells [3]; Fig. S4B, share of N): 54.4118
- foci/cell: share of cells with >61 foci (Suma 100) (AGS cells [3]; Fig. S4B, share of N): 0
- foci/cell: number of cells with 16-30 foci (PANC1 cells [4]; cell counts): 11
- foci/cell: number of cells with 31-45 foci (PANC1 cells [4]; cell counts): 3
- foci/cell: number of cells with 46-60 foci (PANC1 cells [4]; cell counts): 1
- foci/cell: number of cells with <15 foci (PANC1 cells [4]; cell counts): 18
- foci/cell: number of cells with >61 foci (PANC1 cells [4]; cell counts): 0
- foci/cell: share of cells with 16-30 foci (Suma 100) (PANC1 cells [4]; share of N): 33.3333
